Each block holds one compound with its values, some of them ahead of it.
Legend:
human renin [1] = biological target: T1, human renin (Homo sapiens, UniProt P00797); details: 106th Annual Meeting of the Pharmaceutical Society of Japan (April, 1986)/Meeting of Japanese Circulation Journal (March, 1986); cited from earlier work
T1 sequence (P00797 67-406): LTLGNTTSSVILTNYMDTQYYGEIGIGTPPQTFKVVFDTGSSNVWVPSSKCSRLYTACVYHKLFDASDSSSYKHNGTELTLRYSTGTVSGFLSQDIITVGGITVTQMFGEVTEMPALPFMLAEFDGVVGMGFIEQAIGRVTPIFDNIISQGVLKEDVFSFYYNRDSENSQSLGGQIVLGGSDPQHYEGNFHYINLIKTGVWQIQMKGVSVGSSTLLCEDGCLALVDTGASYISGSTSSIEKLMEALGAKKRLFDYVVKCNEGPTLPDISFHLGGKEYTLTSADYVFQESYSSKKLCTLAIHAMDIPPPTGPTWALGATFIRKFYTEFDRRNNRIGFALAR

common marmoset = experiment: Hypotensive effect in marmoset (furosemide-induced high renin state); type: in vivo; details: oral
Method: The experiment was carried out by using common marmoset as described in K. G. Hofbauer et al., Clinical and Experimental hypertension, Vol. A5, Nos. 7 & 8 (1983), pages 1237-1247.
Furosemide was orally administered three times to common marmoset at 15 mg per kilogram per day every other day to create a high renin state. Blood pressure of conscious marmoset was measured 2 days after the last administration of furosemide.
Measurement of blood pressure
Two conscious male marmosets weighing 365-380 g were fixed. Mean blood pressure at tail artery was recorded on pretismograph instument. The amino acid compound of the present invention, administered orally using a catheter.

[2] = biological target: T2, renin in human high renin plasma (Homo sapiens, UniProt P00797); experiment: Renin inhibitory effect in a human high renin plasma; type: biochemical; details: pH 7.4, 30 minutes at 37° C., read-out: IC50 (molar concentration)
T2 construct: 500 μl of human high renin plasma; from tissue; host or cells: human high renin plasma
T2 sequence (P00797 67-406): T1 sequence (P00797 67-406)
Method: Renin inhibitory effect in a human high renin plasma A mixture of 350 μl of a 0.5M phosphate buffer containing 14 mM EDTA 2Na and a 0.3% neomycin sulfate, which was adjusted to the pH of 7.4, 50 μl of a 20 mM an aqueous solution of […] as an angiotensin converting enzyme inhibitor and 100 μl of dimethyl sulfoxide solution containing an amino acid compound of the present invention was added to 500 μl of human high renin plasma. […] was incubated for 30 minutes at 37° C. in a water bath. A 200 μl sample was withdrawn from the incubated mixture, chilled immediately in an ice bath, and the amount of angiotensin I produced was determined by radioimmunoassay, and remaining of the mixture (200 μ[…] 4° C. in an ice bath. The amount of angiotensin I produced in the incubated mixture at 4° C. in an ice bath was determined by radioimmunoassay. As a control, the same procedure as above was carried out by using 100 μl of dimethyl sulfoxide alone in place of the 100 μl of dimethyl sulfoxide solution containing an amino acid compound of the present invention. The inhibitory effect was calculated by the following equation. [formula] The molar concentration which produced 50% inhibition (IC50) was calculated from the inhibition value obtained, and the results are shown below.

human renin [3] = biological target: T1, human renin; experiment: Human renin-sheep renin substrate reaction system in vitro; type: biochemical; details: pH 7.4, 15 minutes at 37° C., read-out: IC50 (molar concentration)
Method: Human resin-sheep resin substrate reaction system in vitro To a mixture containing 200 μl of a 125 mM pyrophosphate buffer (pH 7.4), 25 μl of a 20 mM aqueous solution of […] as an angiotensin converting enzyme inhibitor, 50 μl of semipurified sheep renin substrate ([…]), 50 μl of dimethyl sulfoxide solution of an amino acid derivative of the present invention (or 50 μl of dimethyl sulfoxide as a control) and 150 μl of deionized water was added 25 μl of purified human renin (20-30 ng angiotensin I/ml/hr). The mixture was incubated for 15 minutes on a water bath at 37° C., and the reaction mixture was allowed to stand for 5 minutes on a water bath at 100° C. to stop the reaction. After cooling, 200 μl of the solution were taken up and the amount of angiotensin I produced by the addition of renin was determined by radioimmunoassay. The inhibitory effect was calculated by the following equation. [formula] The molar concentration which produced 50% inhibition (IC50) was calculated from the inhibition value obtained, and the results are shown below.

[4] = 100 mg/kg, n = 2, 1 hour after administration, control 94.0 in (a), 90.9 in (c)
[5] = 100 mg/kg, n = 2, 2 hours after administration, control 94.0 in (a), 90.9 in (c)
[6] = 100 mg/kg, n = 2, 3 hours after administration, control 94.0 in (a), 90.9 in (c)
[7] = 100 mg/kg, n = 2, 5 hours after administration, control 94.0 in (a), 90.9 in (c)
[8] = 100 mg/kg, n = 2, 7 hours after administration, control 94.0 in (a), 90.9 in (c)

IC50 [2]: 220 nM
IC50 (human renin [3]): 120 nM
SMILES: COC(=O)[C@@H]1CCCN1C(=O)CC(Cc1cccc2ccccc12)C(=O)N[C@@H](Cc1c[nH]cn1)C(=O)N[C@@H](CC(C)C)[C@@H](O)CC(=O)NCCC(C)C (stereo partly drawn) [N-[2-(1-Naphthylmethyl)-3-(2S-methoxycarbonylpyrrolidinocarbonyl)propionyl]-L-histidyl-statylisoamylamide]

IC50 [2]: 35 nM
IC50 (human renin [3]): 35 nM
SMILES: COC(=O)CN(C)C(=O)CC(Cc1cccc2ccccc12)C(=O)N[C@@H](Cc1c[nH]cn1)C(=O)N[C@@H](CC(C)C)[C@@H](O)CC(=O)NCCC(C)C (stereo partly drawn) [N-[2-(1-Naphthylmethyl)-3-(N-methyl-N-methoxycarbonylmethylcarbamoyl)propionyl]-L-histidyl-statylisoamylamide]

IC50 [2]: 60 nM
IC50 (human renin [3]): 37 nM
SMILES: COC(=O)CC(Cc1cccc2ccccc12)C(=O)N[C@@H](Cc1c[nH]cn1)C(=O)N[C@@H](CC(C)C)[C@@H](O)CC(=O)NCCC(C)C (stereo partly drawn) [N-[3-(methoxycarbonyl)-2-(1-naphthylmethyl)propionyl]-L-histidyl-statylisoamylamide]

The remaining lines, values behind:

SMILES: CC(C)CC(NC(=O)[C@H](Cc1c[nH]cn1)NC(=O)C(CC(=O)N1CCOCC1)Cc1cccc2ccccc12)C(O)C(=O)OC(C)C (stereo partly drawn)
human renin inhibitory activity (human renin [1]): human renin inhibitory activity

SMILES: COC(=O)CC(Cc1cccc2ccccc12)C(=O)N[C@@H](Cc1c[nH]cn1)C(=O)N[C@@H](CC(C)C)C(O)C(=O)OC(C)C (mixture of isomers) [Isopropyl (2RS,3S)-3-[3-(methoxycarbonyl)-2-(1-naphthylmethyl)propionyl-L-histidyl]amino-2-hydroxy-5-methylhexanoate]
Blood pressure (common marmoset; [4]): 78.6 mmHg
Blood pressure (common marmoset; [5]): 76.9 mmHg
Blood pressure (common marmoset; [6]): 69.4 mmHg
Blood pressure (common marmoset; [7]): 76.0 mmHg
Blood pressure (common marmoset; [8]): 77.8 mmHg
Blood pressure (common marmoset; 100 mg/kg, n = 2, 9 hours after administration, control 90.9 in (c)): 85.3 mmHg
IC50 [2]: 56 nM
IC50 (human renin [3]): 25 nM

SMILES: COC(=O)CN(C)C(=O)CC(Cc1cccc2ccccc12)C(=O)N[C@@H](Cc1c[nH]cn1)C(=O)N[C@@H](CC(C)C)C(O)C(=O)OC(C)C (mixture of isomers) [Isopropyl(2RS,3S)-3-{N-[2-(1-naphthylmethyl)-3-(N-methyl-N-methoxycarbonylmethylcarbamoyl)propionyl]-L-histidyl}amino-2-hydroxy-5-methylhexanoate]
Blood pressure (common marmoset; 30 mg/kg, n = 2, 1 hour after administration, control 95.4): 62.1 mmHg
Blood pressure (common marmoset; 30 mg/kg, n = 2, 2 hours after administration, control 95.4): 59.8 mmHg
Blood pressure (common marmoset; 30 mg/kg, n = 2, 3 hours after administration, control 95.4): 66.5 mmHg
Blood pressure (common marmoset; 30 mg/kg, n = 2, 5 hours after administration, control 95.4): 84.9 mmHg
Blood pressure (common marmoset; 30 mg/kg, n = 2, 7 hours after administration, control 95.4): 88.3 mmHg
IC50 [2]: 20 nM
IC50 (human renin [3]): 17 nM

SMILES: COC(=O)[C@@H]1CCCN1C(=O)CC(Cc1cccc2ccccc12)C(=O)N[C@@H](Cc1c[nH]cn1)C(=O)N[C@@H](CC(C)C)C(O)C(=O)OC(C)C (stereo partly drawn) [Isopropyl(2RS,3S)-3-{N-[2-(1-naphthylmethyl)-3-(2S-methoxycarbonylpyrrolidinocarbonyl)propionyl]-L-histidyl}-amino-2-hydroxy-5-methylhexanoate]
Blood pressure (common marmoset; [4]): 77.5 mmHg
Blood pressure (common marmoset; [5]): 74.0 mmHg
Blood pressure (common marmoset; [6]): 70.0 mmHg
Blood pressure (common marmoset; [7]): 92.2 mmHg
Blood pressure (common marmoset; [8]): 101.5 mmHg
IC50 [2]: 50 nM
IC50 (human renin [3]): 52 nM

SMILES: COC(=O)[C@H]1CCCN1C(=O)CC(Cc1cccc2ccccc12)C(=O)N[C@@H](Cc1c[nH]cn1)C(=O)N[C@@H](CC(C)C)C(O)C(=O)OC(C)C (stereo partly drawn) [Isopyl(2RS,3S)-3-{N-[2-(1-naphthylmethyl)-3-(2R-methoxycarbonylpyrrolidinocarbonyl)propionyl]-L-histidyl}amino-2-hydroxy-5-methylhexanoate]
IC50 [2]: 15 nM
IC50 (human renin [3]): 28 nM

SMILES: COC(=O)C(O)[C@H](CC(C)C)NC(=O)[C@H](Cc1c[nH]cn1)NC(=O)C(CC(=O)N1CCC[C@H]1C(=O)OC)Cc1cccc2ccccc12 (stereo partly drawn) [Methyl(2RS,3S)-3-{N-[2-(1-naphthylmethyl)-3-(2S-methoxycarbonylpyrrolidinocarbonyl)propionyl]-L-histidyl}amino-2-hydroxy-5-methylhexanoate]
IC50 [2]: 53 nM
IC50 (human renin [3]): 40 nM

From patent US4857650A, “Novel renin inhibitory amino acid derivatives” (Kissei Pharmaceutical Co., Ltd., priority 1985, dated 1989)
